Source: patent publication US20150307614A1, “Enhanced immunological responses” (Duke University, priority 2009, published 2015)

Assays:
OVA-specific T-cells = assay: Antigen-specific vaccination after TMZ-induced lymphopenia in mice, with or without anti-IL-2Rα; type: in vivo; settings: TMZ pre-treatment
Procedure: (§1) It also induces transient, Grade 3 lymphopenia (<500 cells/uL) in 70% of patients with GBM after the first cycle (150-200 mg/m2/5 d) with nadirs occurring 14-21 days after treatment (n=10). TMZ treatment also leads to an increase in the proportion of TRegs in the peripheral blood (unpublished). Despite this, we have been able to induce and maintain potent EGFRvIII-specific humoral and cellular immune responses in patients with GBM receiving TMZ. Thus, we evaluated TMZ for its capacity to induce homeostatic proliferation and to enhance antigen-specific immune responses in a murine model. Markedly elevated levels of antigen-specific T-cells could be achieved and maintained in mice receiving antigen-specific vaccination after TMZ-induced lymphopenia when compared to normal hosts.

[1] = TMZ-induced lymphopenia in patients with GBM; type: in vivo, human; settings: after the first cycle (150-200 mg/m2/5 d), n=10
Procedure: as §1

human TRegs = assay: Daclizumab on human TRegs in vitro; type: cell-based
[2] = test system: newly-diagnosed, EGFRvIII+ GBM
Procedure: In patients with newly-diagnosed, EGFRvIII+ GBM, after resection and radiation/TMZ, patients received CDX-110 vaccinations biweekly×3, then monthly until tumor progression in combination with TMZ (200 mg/m^2×5/28 days). […] The others received saline in a double-blinded fashion.

[3] = after expansion post vaccination

Cn1nnc2c(C(N)=O)ncn2c1=O [TMZ, temozolomide]
OVA-specific T-cells, frequency of circulating CD8+ T-cells (OVA-specific T-cells; 4 weeks post-vaccination): 21.18%
OVA-specific T-cells, absolute count after vaccination (OVA-specific T-cells; [3]): 42.61 cells/uL
OVA-specific T-cells, frequency of circulating CD8+ T-cells after vaccination (OVA-specific T-cells; [3]): 10.64%
OVA-specific T-cells, absolute count, start of expansion (OVA-specific T-cells; starting count): 3.41 cells/uL blood
OVA-specific T-cells, frequency of circulating CD8+ T-cells, start of expansion (OVA-specific T-cells; starting frequency): 0.40%
patients with transient Grade 3 lymphopenia (<500 cells/uL) [1]: 70%
time of lymphopenia nadirs after treatment [1]: 14 to 21 days

daclizumab: commercially available humanized IL-2Rα-specific antibody
effector T-cell function (human TRegs; in vitro): increase
human TRegs (human TRegs; in vitro): reduction
CD4+ T-cell responses (human TRegs; preliminary in vitro studies with human TRegs in the presence of daclizumab): enhancement
OS (overall survival) ([2]; both arms): has not been reached
TTP (time to progression) ([2]; both arms): has not been reached
overall CD8+ or CD4+ T-cell counts ([2]; daclizumab 1 mg/Kg×1, preliminary analysis n=4): without reducing
EGFRvIII-specific immune responses ([2]; daclizumab arm, preliminary analysis n=4, p=0.01 t-test): enhanced
titer of cytotoxic EGFRvIII-specific IgG1 isotype antibodies ([2]; human, in vivo): enhanced
Treg (CD4+CD25+CD45RO+FOXP3+) numbers, change from baseline ([2]; reduction, daclizumab 1 mg/Kg×1 at first vaccine, preliminary analysis n=4, p=0.011 t-test): 82.4±7.1%
